Counter-ions that a name gives are not always drawn.
How the values were obtained:
[1] = biological target: 5-hydroxytryptamine receptor 2A (Rattus norvegicus, UniProt P14842)
[2] = biological target: T1, 5-hydroxytryptamine receptor 2C (Rattus norvegicus, UniProt P08909)
T1 sequence (P08909 whole entry): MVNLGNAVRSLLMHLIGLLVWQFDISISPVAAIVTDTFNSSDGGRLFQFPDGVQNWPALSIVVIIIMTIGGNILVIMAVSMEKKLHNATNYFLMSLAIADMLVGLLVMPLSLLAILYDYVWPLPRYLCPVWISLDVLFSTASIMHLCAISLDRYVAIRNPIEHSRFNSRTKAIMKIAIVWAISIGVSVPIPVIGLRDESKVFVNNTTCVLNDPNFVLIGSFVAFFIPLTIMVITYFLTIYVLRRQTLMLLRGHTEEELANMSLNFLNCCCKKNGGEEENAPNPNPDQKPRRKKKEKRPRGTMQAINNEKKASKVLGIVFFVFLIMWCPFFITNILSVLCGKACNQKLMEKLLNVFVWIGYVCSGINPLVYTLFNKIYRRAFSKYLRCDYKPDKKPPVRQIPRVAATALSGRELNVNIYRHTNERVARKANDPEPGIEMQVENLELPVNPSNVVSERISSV

Chain of 5-hydroxytryptamine receptor 2A (P14842 whole entry): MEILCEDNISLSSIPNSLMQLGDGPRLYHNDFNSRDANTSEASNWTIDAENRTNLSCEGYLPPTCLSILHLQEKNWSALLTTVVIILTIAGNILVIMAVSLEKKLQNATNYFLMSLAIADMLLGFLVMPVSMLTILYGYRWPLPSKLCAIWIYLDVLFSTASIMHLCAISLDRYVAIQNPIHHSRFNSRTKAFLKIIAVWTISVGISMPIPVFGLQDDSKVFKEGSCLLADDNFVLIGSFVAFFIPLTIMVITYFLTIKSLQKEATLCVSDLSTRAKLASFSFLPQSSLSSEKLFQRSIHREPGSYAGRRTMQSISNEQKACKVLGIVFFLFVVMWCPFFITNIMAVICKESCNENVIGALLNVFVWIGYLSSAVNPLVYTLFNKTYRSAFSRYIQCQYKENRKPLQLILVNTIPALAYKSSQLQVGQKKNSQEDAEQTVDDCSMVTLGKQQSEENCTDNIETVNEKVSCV

SMILES | Ki [1] [nM] | Ki [2] [nM]
O=c1[nH]c2ccccc2n1CCCN1CCC(n2c(=O)[nH]c3cc(Cl)ccc32)CC1 | 294 | > 10000
CC1CCN(CCCC(=O)c2ccc(F)cc2)CC1 [CAS_3575-80-2] | – | 1340
Clc1cncc(N2CCNCC2)n1 [L-630,571] | > 10000 | 255
O=C(c1ccc(F)cc1)C1CCN(CCn2c(=O)[nH]c3ccccc3c2=O)CC1 [3-(2-{4-[(4-fluorophenyl)carbonyl]piperidin-1-yl}ethyl)-1,2,3,4-tetrahydroquinazoline-2,4-dione] | – | 28.5
CN1CCc2cc(Cl)c(O)cc2[C@@H](c2ccccc2)C1 [SCH 23390,R(+)] | 19.9 | 13.4
CN1CCN(C2=Nc3cscc3C(=CC#N)c3cscc32)CC1 [NSC_3086153] | 39.8 | 62
CN1CCN(CC/C=C2/c3ccccc3Sc3ccc(S(=O)(=O)N(C)C)cc32)CC1 [MLS000028463] | – | 1550
CN1CCN(C2=Nc3cc(F)ccc3Cc3ccccc32)CC1 | 7.9 | 18.2
O=c1[nH]c2ccccc2n1C1CCN(CCCC(c2ccc(F)cc2)c2ccc(F)cc2)CC1 [1-(1-(4,4-bis(4-fluorophenyl)butyl)piperidin-4-yl)-1H-benzo[d]imidazol-2(3H)-one] | 7.9 | > 10000
c1ccc2nc(N3CCNCC3)ccc2c1 [2-Piperazin-1-yl-quinoline (Quipazine)] | 613 | 336
O=C1CC2(CCCC2)CC(=O)N1CCCCN1CCN(c2nsc3ccccc23)CC1 [TIOSPERONE] | – | 9.7
CN1CCCCC1CCN1c2ccccc2Sc2ccc([S+](C)[O-])cc21 (stereo unspecified) | 6.3 | 79
OCCN1CCN(CC/C=C2/c3ccccc3Sc3ccc(C(F)(F)F)cc32)CC1 [(cis) 2-{4-[3-(2-Trifluoromethyl-thioxanthen-9-ylidene)-propyl]-piperazin-1-yl}-ethanol(Flupentixol)] | 2 | 102
CCNC(=O)N1CCN(CCCC(c2ccc(F)cc2)c2ccc(F)cc2)CC1 | – | 1150
CN1CCN(C2=Cc3cc(Cl)ccc3C(=CC#N)c3ccccc32)CC1 [CAS_79781-95-6] | 0.79 | 23
CCN(CC)CCNC(=O)c1cc(Cl)c(N)cc1OC [4-amino-5-chloro-N-[2-(diethylamino)ethyl]-2-methoxy-benzamide;hydrochloride] | – | > 10000

Source: BindingDB's records for PubMed 1347569 (Stanford University, 1992)
